From patent publication US20230113037A1 (Bayer Aktiengesellschaft, priority 2019, published 2023) come the findings set out here.

Assay [1] addresses T1, AHR (Homo sapiens, UniProt P35869).
T1 construct: U87 MG glioblastoma cells (ATCC #HTB-14) endogenously expressing AHR; endogenous in cells; host or cells: U87 MG glioblastoma cells (ATCC #HTB-14)
T1 sequence (P35869 11-848): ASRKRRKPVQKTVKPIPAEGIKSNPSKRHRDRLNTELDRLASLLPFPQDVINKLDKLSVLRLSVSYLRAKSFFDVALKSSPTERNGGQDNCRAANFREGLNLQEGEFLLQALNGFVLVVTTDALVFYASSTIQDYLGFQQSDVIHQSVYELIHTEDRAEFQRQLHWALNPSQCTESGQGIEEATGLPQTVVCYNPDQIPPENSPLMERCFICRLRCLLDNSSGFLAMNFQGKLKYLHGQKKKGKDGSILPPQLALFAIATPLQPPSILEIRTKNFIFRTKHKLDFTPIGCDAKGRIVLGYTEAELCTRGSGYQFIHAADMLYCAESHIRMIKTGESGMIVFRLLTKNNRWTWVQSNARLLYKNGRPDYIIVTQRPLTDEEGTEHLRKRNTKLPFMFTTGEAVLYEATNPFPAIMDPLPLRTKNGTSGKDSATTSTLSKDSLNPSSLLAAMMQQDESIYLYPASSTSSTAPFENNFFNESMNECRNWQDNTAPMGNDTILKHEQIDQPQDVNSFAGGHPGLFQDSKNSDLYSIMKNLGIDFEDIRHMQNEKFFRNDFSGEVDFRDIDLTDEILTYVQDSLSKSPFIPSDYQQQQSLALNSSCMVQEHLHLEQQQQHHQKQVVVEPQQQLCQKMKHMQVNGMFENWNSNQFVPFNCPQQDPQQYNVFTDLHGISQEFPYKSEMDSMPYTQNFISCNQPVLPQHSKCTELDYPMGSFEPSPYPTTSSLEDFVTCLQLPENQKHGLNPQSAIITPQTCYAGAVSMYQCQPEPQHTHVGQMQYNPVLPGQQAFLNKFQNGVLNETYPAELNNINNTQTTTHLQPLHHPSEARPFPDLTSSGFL
Description: In vitro assay 1: antagonism in human cell line (AHR transactivation, firefly luciferase reporter, kynurenic acid prestimulated). It counts as cell-based. Conditions: AHR Antagonism Human IC50 [M], firefly luciferase reporter. In a few lines:
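Antagonism is measured against kynurenic acid prestimulation in U87 MG glioblastoma cells carrying stable DRE-luciferase and Renilla reporters. Positive inhibition control: 150 μM kynurenic acid with 5 μM staurosporine. Values are normalized to controls; repeats are averaged or given as medians.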
(In general: Reporter assays use an easily measured gene product as a stand-in for the process of interest.)

Assay [2] deals with T2, AHR (Mus musculus, UniProt P30561).
T2 sequence (P30561 1-848 P471L/N533S/M589L): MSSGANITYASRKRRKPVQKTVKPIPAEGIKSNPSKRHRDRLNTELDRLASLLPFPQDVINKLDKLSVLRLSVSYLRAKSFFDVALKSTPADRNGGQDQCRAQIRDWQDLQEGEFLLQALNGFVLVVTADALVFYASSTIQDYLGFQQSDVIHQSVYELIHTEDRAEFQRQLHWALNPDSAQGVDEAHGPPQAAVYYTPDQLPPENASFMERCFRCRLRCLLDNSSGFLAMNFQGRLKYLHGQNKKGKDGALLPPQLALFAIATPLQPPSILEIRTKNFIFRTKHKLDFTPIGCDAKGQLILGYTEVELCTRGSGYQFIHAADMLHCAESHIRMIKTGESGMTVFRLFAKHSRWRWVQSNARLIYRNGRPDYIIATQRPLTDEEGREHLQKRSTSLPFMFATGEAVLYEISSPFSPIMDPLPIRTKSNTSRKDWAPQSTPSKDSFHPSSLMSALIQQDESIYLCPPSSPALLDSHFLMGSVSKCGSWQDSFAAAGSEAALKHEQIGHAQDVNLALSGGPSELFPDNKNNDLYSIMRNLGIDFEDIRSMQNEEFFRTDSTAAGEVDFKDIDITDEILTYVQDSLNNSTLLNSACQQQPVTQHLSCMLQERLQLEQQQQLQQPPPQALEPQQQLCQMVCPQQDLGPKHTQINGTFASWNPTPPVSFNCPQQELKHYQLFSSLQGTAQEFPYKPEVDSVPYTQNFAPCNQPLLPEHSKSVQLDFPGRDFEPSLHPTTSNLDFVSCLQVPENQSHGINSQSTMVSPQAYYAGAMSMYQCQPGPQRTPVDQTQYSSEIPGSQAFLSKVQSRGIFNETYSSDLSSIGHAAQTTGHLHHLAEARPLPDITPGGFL
Description: In vitro assay 3: antagonism in mouse cell line (AHR transactivation, firefly luciferase reporter, kynurenic acid prestimulated). It counts as cell-based. In a few lines:
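Antagonism read as reduced firefly luciferase signal (SteadyGlo) from a stably transfected AHR/DRE reporter in a mouse line prestimulated with kynurenic acid. Data normalized to controls, the full-inhibition control being cells without kynurenic acid; multiple determinations given as average or median values.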

Where [3] appears, read: Hepa 1c1c7 cells, 200 μM kynurenic acid, 20 hours, firefly luciferase reporter, read-out: AHR Antagonism Mouse IC50.
[4] abbreviates: read-out: AHR Antagonism Mouse IC50, Hepa 1c1c7 cells, 200 μM kynurenic acid, 20 hours, firefly luciferase reporter.

Structures are written as SMILES. Like-named read-outs stand apart in the source and are kept apart here.

Regarding `CCCNC(=O)[C@@H](CC)Nc1nc2c(Br)cccc2c2nc(-c3ccc(Cl)cc3OC(F)F)nn12` [Example 797, (2R)-2-({7-bromo-2-[4-chloro-2-(difluoromethoxy)phenyl][1,2,4]triazolo[1,5-c]quinazolin-5-yl}amino)-N-propylbutanamide], the IC50 on AHR [1] is 1.58e-09 M; at AHR [2] (setting [3]) it was 0.963 nM.
The corresponding values for `CCNC(=O)[C@@H](CC)Nc1nc2c(Br)cccc2c2nc(-c3ccc(Cl)cc3OC(F)F)nn12` [Example 798, (2R)-2-({7-bromo-2-[4-chloro-2-(difluoromethoxy)phenyl][1,2,4]triazolo[1,5-c]quinazolin-5-yl}amino)-N-ethylbutanamide] are 7.57e-10 M and 0.811 nM.
Take `CCNC(=O)[C@H](CC)Nc1nc2c(Br)cccc2c2nc(-c3ccc(Cl)cc3OC(F)F)nn12` [Example 799, (2S)-2-({7-bromo-2-[4-chloro-2-(difluoromethoxy)phenyl][1,2,4]triazolo[1,5-c]quinazolin-5-yl}amino)-N-ethylbutanamide]: the 50% inhibitory concentration (IC50) at AHR [1] is 4.21e-08 M; on AHR [2] (setting [3]), 18.5 nM.
In the case of `CC[C@@H](Nc1nc2c(Br)cccc2c2nc(-c3ccnn3C)nn12)C(N)=O` [Example 800, (2R)-2-{[7-bromo-2-(1-methyl-1H-pyrazol-5-yl)[1,2,4]triazolo[1,5-c]quinazolin-5-yl]amino}butanamide], the half-inhibitory concentration (IC50) stood at 2.37e-09 M against AHR [1] and 1.69 nM on AHR [2] (setting [4]).
For `CC[C@H](Nc1nc2c(Br)cccc2c2nc(-c3ccnn3C)nn12)C(N)=O` [Example 801, (2S)-2-{[7-bromo-2-(1-methyl-1H-pyrazol-5-yl)[1,2,4]triazolo[1,5-c]quinazolin-5-yl]amino}butanamide], the IC50 is 1.04e-07 M against AHR [1] and 40.5 nM at AHR [2] (setting [4]).
With `CCCNC(=O)[C@H](C)Nc1nc2c(Br)cccc2c2nc(-c3ccc(Cl)cc3OC(F)F)nn12` [Example 802, N^2-{7-bromo-2-[4-chloro-2-(difluoromethoxy)phenyl][1,2,4]triazolo[1,5-c]quinazolin-5-yl}-N-propyl-L-alaninamide], the figures for the IC50 against AHR [1] and on AHR [2] (setting [3]) were 4.76e-08 M and 12.5 nM, respectively.
Regarding `CCCCNC(=O)[C@@H](CC)Nc1nc2c(Br)cccc2c2nc(-c3ccc(Cl)cc3OC(F)F)nn12` [Example 804, (2R)-2-({7-bromo-2-[4-chloro-2-(difluoromethoxy)phenyl][1,2,4]triazolo[1,5-c]quianzolin-5-yl}amino)-N-butylbutanamide], the half-inhibitory concentration (IC50) on AHR [1] amounted to 6.42e-09 M; at AHR [2] (setting [3]), 3 nM.
For the compound `CC[C@H](Nc1nc2c(C(F)(F)F)cccc2c2nc(-c3ccnn3C)nn12)C(N)=O` [Example 805, (2S)-2-{[2-(1-methyl-1H-pyrazol-5-yl)-7-(trifluoromethyl)[1,2,4]triazolo[1,5-c]quinazolin-5-yl]amino}butanamide], the half-maximal inhibitory concentration (IC50) at AHR [1] stood at 1.9e-07 M; at AHR [2] (setting [3]) it was 70.4 nM.
The corresponding values for `CC[C@@H](Nc1nc2c(C(F)(F)F)cccc2c2nc(-c3ccnn3C)nn12)C(N)=O` [Example 806, (2R)-2-{[2-(1-methyl-1H-pyrazol-5-yl)-7-(trifluoromethyl)[1,2,4]triazolo[1,5-c]quinazolin-5-yl]amino}butanamide] are 3.49e-09 M and 1.14 nM.
On the same counts, the results for `Cn1nccc1-c1nc2c3cccc(C(F)(F)F)c3nc(N[C@H]3CCCCNC3=O)n2n1` [Example 807, (3S)-3-{[2-(1-methyl-1H-pyrazol-5-yl)-7-(trifluoromethyl)[1,2,4]triazolo[1,5-c]quinazolin-5-yl]amino}azepan-2-one] are 1.1e-07 M and 63.8 nM.
Take `Cn1nccc1-c1nc2c3cccc(C(F)(F)F)c3nc(N[C@@H]3CCCCNC3=O)n2n1` [Example 808, (3R)-3-{[2-(1-methyl-1H-pyrazol-5-yl)-7-(trifluoromethyl)[1,2,4]triazolo[1,5-c]quinazolin-5-yl]amino}azepan-2-one]: the values for the IC50 against AHR [1] and at AHR [2] (setting [3]) were 8.12e-10 M and 1.16 nM, respectively.

As a reminder, the IC50 is the concentration at which inhibition is half-maximal.
